This is an account of results in publication PMC8948292, “Combining PEGylated mito-atovaquone with MCT and Krebs cycle redox inhibitors as a potential strategy to abrogate tumor cell proliferation” (Scientific Reports, 2022).

Test [1] deals with MiaPaCa-2 cells. Nature of the test: Cell proliferation (cell confluence), IncuCyte Live-Cell Analysis System. In kind it is cell-based, human. The settings on record: MiaPaCa-2 cells; for Inhibition of cell proliferation in combination with Mito-PEG5-ATO (combination index): combined with Mito-PEG5-ATO; for % changes of IC50 with vs without Mito-PEG5-ATO: heat map Fig. 7d. Here is the method:
(§1) The following cell lines were obtained from the American Type Culture Collection (Manassas, VA), where they were regularly authenticated: MiaPaCa-2 (ATCC Cat# CRL-1420, human pancreatic cancer cells), U87MG (ATCC Cat# HTB-14, human brain cancer cells), A549 (ATCC Cat# CCL-185, lung cancer cells), and HCT-116 (ATCC Cat# CCL-247, colon cancer cells). All cell lines were grown at 37 °C in 5% carbon dioxide. MiaPaCa-2 cells were maintained in Dulbecco's Modified Eagle Medium (Thermo Fisher Scientific, Waltham, MA; Cat# 11965) supplemented with 10% fetal bovine serum. U87MG, A549, and HCT-116 cells were maintained in RPMI 1640 medium (Thermo Fisher Scientific, Cat# 11875), supplemented with 10% fetal bovine serum. All cells were stored in liquid nitrogen and used within 20 passages after thawing.
(§2) The IncuCyte Live-Cell Analysis System was used to monitor cell proliferation[3],[33],[67]. As shown in previous publications[3],[67], this imaging system is probe-free and noninvasive, and enables continuous monitoring of cell confluence over several days. The increase in the percentage of cell confluence was used as a surrogate marker of cell proliferation. In a 96-well plate, cells were plated at 1,000 cells per well in triplicates and left to adhere overnight. Cells were then treated with Mito-PEG-ATO analogs, and the cell confluency was recorded over several days in the IncuCyte Live-Cell Analysis System.

The target in test [2] is mitochondrial complex I (MiaPaCa-2 cells) (Homo sapiens, UniProt O75251+O75306+P03886). The test can be described thus: Complex I-dependent oxygen consumption in permeabilized cells, Seahorse XF-96. In kind it is cell-based. The conditions noted are these: 24 h, with Mito-PEG5-ATO. Here is the method: Mitochondrial oxygen consumption was measured using the Seahorse XF-96 Extracellular Flux Analyzer (Agilent, North Billerica, MA)[3],[33],[67],[68]. To determine the intact cell mitochondrial function of MiaPaCa-2 cells in response to Mito-PEG-ATO analogs, we used the bioenergetic function assay previously described[2],[3]. […] From these measurements, indices of mitochondrial function were determined as previously described[2],[3]. For mitochondrial complex activities assays, after cells were treated with Mito-PEG-ATO analogs for 24 h, the OCR-based assessment of mitochondrial complex activities was carried out on acutely permeabilized cells in the presence of different mitochondrial substrates, i.e., pyruvate/malate for complex I and duroquinol for complex III[3],[32],[34],[69]. Rotenone, malonate, and antimycin A (Sigma-Aldrich, St. Louis, MO) were used as specific inhibitors of mitochondrial complexes I, II, and III, respectively. Briefly, cells that were intact after treatments were immediately permeabilized using the Seahorse XF Plasma Membrane Permeabilizer (Agilent). The mitochondrial complex I-induced OCR was assayed in mannitol and sucrose buffer[69] containing 10 mM pyruvate and 1.5 mM malate (substrates for complex I) and 10 mM malonate (which inhibits complex II activities). […] The IC50 values were determined as previously reported.

Test [3] has as its target mitochondrial complex III (MiaPaCa-2 cells) (Homo sapiens, UniProt P00156). Nature of the test: Complex III-dependent oxygen consumption in permeabilized cells, Seahorse XF-96. In kind it is cell-based. The conditions noted are these: MiaPaCa-2 cells; with Mito-PEG5-ATO. Here is the method:
(§3) Mitochondrial oxygen consumption was measured using the Seahorse XF-96 Extracellular Flux Analyzer (Agilent, North Billerica, MA)[3],[33],[67],[68]. To determine the intact cell mitochondrial function of MiaPaCa-2 cells in response to Mito-PEG-ATO analogs, we used the bioenergetic function assay previously described[2],[3]. […] From these measurements, indices of mitochondrial function were determined as previously described[2],[3]. For mitochondrial complex activities assays, after cells were treated with Mito-PEG-ATO analogs for 24 h, the OCR-based assessment of mitochondrial complex activities was carried out on acutely permeabilized cells in the presence of different mitochondrial substrates, i.e., pyruvate/malate for complex I and duroquinol for complex III[3],[32],[34],[69]. Rotenone, malonate, and antimycin A (Sigma-Aldrich, St. Louis, MO) were used as specific inhibitors of mitochondrial complexes I, II, and III, respectively. Briefly, cells that were intact after treatments were immediately permeabilized using the Seahorse XF Plasma Membrane Permeabilizer (Agilent). The mitochondrial complex I-induced OCR was assayed in mannitol and sucrose buffer[69] containing 10 mM pyruvate and 1.5 mM malate (substrates for complex I) and 10 mM malonate (which inhibits complex II activities). The mitochondrial complex III-driven OCR was assayed in a mannitol and sucrose buffer containing 0.5 mM duroquinol (substrate for complex III) as well as 1 µM rotenone and 10 mM malonate (which inhibit both complex I and II activities). The IC50 values were determined as previously reported.

Test [4] concerns MiaPaCa-2 cells. The test can be described thus: Intracellular ATP, luciferase-based assay. In kind it is cell-based, human. The conditions noted are these: Mito-PEG5-ATO 0 µM, 24 h. Here is the method: After seeding cells overnight at 2 × 10^4 per well in 96-well plates, cells were treated for 24 h. Intracellular ATP levels were determined in cell lysates using a luciferase-based assay per the manufacturer’s instructions (cat# FLAA, Sigma Aldrich, St. Louis, MO). In brief, the assay starts by rapidly adding an ATP assay mix solution (luciferase and luciferin solution, cat# FLAAM) to cell lysates. This is swirled briskly to mix, and the amount of light produced is immediately measured with a luminometer. The results were normalized to the total protein level measured in each well, as determined by the Bradford method (Bio-Rad Laboratories, Hercules, CA).

For test [5], the system named is MiaPaCa-2 cells. The test can be described thus: Intracellular oxidants: HPLC of hydroethidine (HE) oxidation products. In kind it is cell-based, human. The settings on record: 24 h, with Mito-PEG5-ATO 0.05 µM, AZD-3965 200 µM or CPI-613 200 µM. As for the experimental part: Hydroethidine (HE) or dihydroethidium was used as a fluorogenic probe to assess the cellular generation of superoxide and other peroxidatic oxidants[36],[37]. Cells were treated for 24 h with Mito-PEG5-ATO alone or in combination with AZD-3965 or CPI-613, followed by 1 h incubation with HE (10 µM). Cells were harvested and the cell pellet stored at − 80 °C until the day of high-performance liquid chromatography (HPLC) analysis. Sample preparation and HPLC analysis were performed as previously reported[32],[36]. 2-OH-E^+ was used as a specific marker for superoxide, and E^+-E^+ was used as a specific marker for intracellular one-electron oxidants[36],[37].
HE was purchased from Invitrogen (Carlsbad, CA). Stock solutions (20 mM and 5 mM, respectively) were prepared in deoxygenated DMSO (dimethyl sulfoxide) and stored at − 80 °C until use. Ethidium cation (bromide salt) was purchased from Sigma-Aldrich. The hydroxylated oxidation products from HE (2-OH-E^+) were prepared by reacting the probes with Fremy’s salt as previously described in detail[70],[71]. The dimeric products were prepared by reacting the probes with excess potassium ferricyanide, as detailed elsewhere. Synthesized standards of all oxidation products of HE were purified by HPLC. HPLC-based measurements of HE and its oxidation products were performed using an Agilent 1100 system equipped with absorption and fluorescence detectors and refrigerated autosampler (4 °C). The samples (50 µL) were injected into a reverse phase column (Phenomenex, Kinetex C18, 100 mm × 4.6 mm, 2.6 µm) equilibrated with 20% acetonitrile and 80% water containing 0.1% trifluoroacetic acid. The compounds were eluted by increasing the content of acetonitrile from 20 to 56% over 4.5 min at a flow rate of 1.5 mL/min. The absorption detector was used to measure 3,8-diamino-6-phenylphenanthridine (at 290 nm; retention time: 2.5 min), HE-E^+ (at 290 nm; retention time: 4.1 min), E^+-E^+ (at 290 nm; retention time: 4.3 min), and HE (at 370 nm; retention time: 1.6 min). A fluorescence detector (initial excitation at 358 nm and emission at 440 nm) was used to monitor HE (when present at low concentrations). At 2.3 min after injection, the fluorescence parameters were changed (excitation at 490 nm and emission at 567 nm) for sensitive detection of 2-OH-E^+ (retention time: 3.2 min) and E^+ (retention time: 3.3 min).

A further test has as its system A549 cells. Nature of the test: Cell proliferation (cell confluence), IncuCyte Live-Cell Analysis System. The conditions noted are these: Homo sapiens; A549 cells; control ~90% confluence; read-out: IC50, inhibition of A549 cell proliferation. The test is classed as cell-based. As for the experimental part: as §1, §2
(§4) Figure S7. Effects of Mito-PEG-ATO analogs on the proliferation of human lung cancer (A549) cells and human colon cancer (HCT-116) cells. (A) The effects of Mito-PEG5-ATO and ATO on the proliferation of A549 (left) or HCT-116 (right) cells were monitored in the IncuCyte Live-Cell Analysis system. The IncuCyte analyzer provides real-time updates on cell confluence, based on segmentation of high definition-phase contrast images. Representative cell images were shown as a segmentation mask illustrated in brown when control cells reached 90% confluence (vertical solid black line). (B) The IC50 values for A549 (left) or HCT-116 (right) cells were determined at the point at which control cells reached ~90% confluence (vertical solid black line). Relative cell confluence (control is taken as 100%) is plotted against concentration. Dashed lines represent the fitting curves used to determine the IC50 values as indicated. Data shown are the mean±SD.

The subject of a further test is HCT-116 cells. Described as above. The test is classed as cell-based. The settings on record: Homo sapiens; HCT-116 cells; control ~90% confluence; read-out: IC50, inhibition of HCT-116 cell proliferation. Here is the method:
as §1, §2, §4

Test [6] relates to mitochondrial respiration (OCR) in intact MiaPaCa-2 cells. Nature of the test: Intact cell mitochondrial respiration (basal OCR), Seahorse XF-96. In kind it is cell-based, human. The conditions noted are these: 24 h treatment; for OCR (pmol/min/µg protein): intact MiaPaCa-2 cells, baseline OCR, mean, n=4. Here is the method:
as §3

Each structure is given as a SMILES string. Read-outs that look alike come from different tables or passages of the source.

Sequence of mitochondrial complex I (MiaPaCa-2 cells) (O75306 34-463): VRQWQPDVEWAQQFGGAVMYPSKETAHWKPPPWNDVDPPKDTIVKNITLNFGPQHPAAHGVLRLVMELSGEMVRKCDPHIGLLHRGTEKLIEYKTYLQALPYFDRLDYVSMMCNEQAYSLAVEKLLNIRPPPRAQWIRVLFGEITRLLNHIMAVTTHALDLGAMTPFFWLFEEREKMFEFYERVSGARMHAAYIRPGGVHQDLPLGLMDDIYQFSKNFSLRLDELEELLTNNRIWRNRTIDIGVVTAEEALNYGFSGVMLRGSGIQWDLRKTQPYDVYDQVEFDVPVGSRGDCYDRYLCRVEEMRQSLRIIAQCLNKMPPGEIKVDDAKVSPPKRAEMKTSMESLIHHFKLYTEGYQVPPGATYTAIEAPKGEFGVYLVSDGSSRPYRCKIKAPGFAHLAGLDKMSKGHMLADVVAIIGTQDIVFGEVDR
Sequence of mitochondrial complex I (MiaPaCa-2 cells) (O75251 39-213): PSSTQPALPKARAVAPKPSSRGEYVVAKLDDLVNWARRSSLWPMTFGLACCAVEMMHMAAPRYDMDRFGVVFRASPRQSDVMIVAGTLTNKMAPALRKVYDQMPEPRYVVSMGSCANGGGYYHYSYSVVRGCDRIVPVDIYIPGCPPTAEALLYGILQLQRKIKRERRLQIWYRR
Sequence of mitochondrial complex I (MiaPaCa-2 cells) (P03886 whole entry): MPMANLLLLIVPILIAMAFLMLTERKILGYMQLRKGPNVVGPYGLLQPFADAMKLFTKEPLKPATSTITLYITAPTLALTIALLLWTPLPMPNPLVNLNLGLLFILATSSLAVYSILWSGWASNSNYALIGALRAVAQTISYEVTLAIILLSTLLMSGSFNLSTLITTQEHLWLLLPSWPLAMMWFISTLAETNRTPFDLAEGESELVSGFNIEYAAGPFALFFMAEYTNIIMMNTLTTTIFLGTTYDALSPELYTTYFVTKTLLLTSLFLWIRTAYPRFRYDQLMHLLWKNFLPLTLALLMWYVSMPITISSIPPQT
Sequence of mitochondrial complex III (MiaPaCa-2 cells) (P00156 whole entry): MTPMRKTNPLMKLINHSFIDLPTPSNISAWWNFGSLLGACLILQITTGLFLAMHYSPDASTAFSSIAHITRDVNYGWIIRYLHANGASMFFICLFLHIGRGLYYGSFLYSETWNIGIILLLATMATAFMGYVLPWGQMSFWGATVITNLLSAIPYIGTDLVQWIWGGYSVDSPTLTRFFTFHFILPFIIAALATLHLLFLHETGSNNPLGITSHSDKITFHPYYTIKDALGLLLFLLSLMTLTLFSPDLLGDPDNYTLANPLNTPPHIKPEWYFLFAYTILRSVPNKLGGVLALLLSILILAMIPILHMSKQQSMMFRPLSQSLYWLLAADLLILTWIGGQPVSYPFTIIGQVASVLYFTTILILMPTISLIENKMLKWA
Sequence of mitochondrial complex III (MiaPaCa-2 cells) (P47985 whole entry partner): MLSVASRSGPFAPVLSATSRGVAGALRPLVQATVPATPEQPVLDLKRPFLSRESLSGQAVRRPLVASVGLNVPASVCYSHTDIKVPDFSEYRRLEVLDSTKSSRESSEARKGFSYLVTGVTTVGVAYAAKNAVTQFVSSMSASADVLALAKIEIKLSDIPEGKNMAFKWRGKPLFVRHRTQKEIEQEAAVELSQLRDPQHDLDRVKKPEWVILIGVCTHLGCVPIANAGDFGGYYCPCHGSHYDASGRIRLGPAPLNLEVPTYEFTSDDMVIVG

Consider `Cc1cccc(COc2ccccc2CN(CC[C@H](N)C(=O)O)Cc2ccccc2OCc2cccc(C)c2)c1` [V-9302, reference compound], for which, in the test with MiaPaCa-2 cells [1], the “Inhibition of cell proliferation in combination with Mito-PEG5-ATO (combination index)” value is listed as “synergistically inhibited” and the “% changes of IC50 with vs without Mito-PEG5-ATO” value was 71.1%. Moreover, the IC50 in the test with MiaPaCa-2 cells [1] (inhibitor alone, control ~90% confluence, read-out: IC50 (cell proliferation) without Mito-PEG5-ATO) is 8.6 µM. Also, in test [2], the “Effect on the decrease in complex I-induced oxygen consumption induced by Mito-PEG5-ATO” value is on record as “Neither AZD-3965 nor V-9302 significantly affected”. For the same compound, the “Effect on the decrease in complex III-induced oxygen consumption induced by Mito-PEG5-ATO” value in test [3] was “Neither AZD-3965 nor V-9302 significantly affected”.

On to `CCOC(=O)Oc1c(OC)cc(C(=O)O[C@@H]2C[C@@H]3CN4CCc5c([nH]c6cc(OC)ccc56)[C@H]4C[C@@H]3[C@H](C(=O)OC)[C@H]2OC)cc1OC` [syrosingopine], for which, in the test on MiaPaCa-2 cells [1] (Homo sapiens, MIA PaCa-2, inhibitor alone, control ~90% confluence, read-out: IC50 (cell proliferation) without Mito-PEG5-ATO), the IC50 was found to be 8 µM. Moreover, the “Inhibition of cell proliferation in combination with Mito-PEG5-ATO (combination index)” value in the test on MiaPaCa-2 cells [1] is given as “Synergistic inhibition”. In the test with MiaPaCa-2 cells [1], the “% changes of IC50 with vs without Mito-PEG5-ATO” value is given as 53.8%. Also, the “intracellular ATP level” value in the test on MiaPaCa-2 cells [4] (syrosingopine 1 µM) amounted to 29.40 nmol ATP/mg protein; in the test on MiaPaCa-2 cells [4] (syrosingopine 3 µM), 30.31 nmol ATP/mg protein; in the test with MiaPaCa-2 cells [4] (syrosingopine 4 µM), 29.92 nmol ATP/mg protein; with MiaPaCa-2 cells [4] (syrosingopine 5 µM), 30.42 nmol ATP/mg protein; in the test with MiaPaCa-2 cells [4] (syrosingopine 6 µM), 30.16 nmol ATP/mg protein; with MiaPaCa-2 cells [4] (syrosingopine 7 µM), 31.07 nmol ATP/mg protein. Moreover, the “intracellular ATP level” value in the test on MiaPaCa-2 cells [4] (syrosingopine 8 µM) came to 31.92 nmol ATP/mg protein; in the test with MiaPaCa-2 cells [4] (syrosingopine 9 µM), 32.59 nmol ATP/mg protein; in the test with MiaPaCa-2 cells [4] (syrosingopine 10 µM), 32.30 nmol ATP/mg protein; with MiaPaCa-2 cells [4] (syrosingopine 15 µM), 33.63 nmol ATP/mg protein; with MiaPaCa-2 cells [4] (syrosingopine 20 µM), 30.18 nmol ATP/mg protein. In addition, the “Intracellular oxidant-induced HE-derived products, in combination with Mito-PEG5-ATO” value in the test with MiaPaCa-2 cells [5] was “modest and additive increase”.

As for `O=C1C(O)=C([C@H]2CC[C@H](c3ccc(Cl)cc3)CC2)C(=O)c2ccccc21` [ATO, atovaquone], the IC50 worked out at 19 µM with MiaPaCa-2 cells [1] (Homo sapiens, MIA PaCa-2, determined when control cells reached ~90% confluence, read-out: IC50, inhibition of cell proliferation); 24 µM in the test with A549 cells; 20 µM with HCT-116 cells; 6.5 µM in test [6] (Homo sapiens, MIA PaCa-2, MiaPaCa-2 cells, read-out: IC50, inhibition of basal OCR in intact cells). Besides, the “OCR (pmol/min/µg protein)” value in test [6] (1 µM) was 11.69 pmol/min/µg protein; in test [6] (3 µM) it was 11.27 pmol/min/µg protein; in test [6] (10 µM), 4.45 pmol/min/µg protein; in test [6] (15 µM) it was 3.40 pmol/min/µg protein; in test [6] (17.5 µM), 2.08 pmol/min/µg protein; in test [6] (20 µM), 1.80 pmol/min/µg protein. The “OCR (pmol/min/µg protein)” value came out at 2.05 pmol/min/µg protein in test [6] (22.5 µM); 2.46 pmol/min/µg protein in test [6] (25 µM); 1.99 pmol/min/µg protein in test [6] (30 µM); 2.11 pmol/min/µg protein in test [6] (40 µM); 0.93 pmol/min/µg protein in test [6] (50 µM).
